Patent EP0982028A1, “New use of taxoid derivatives” (RHONE-POULENC RORER S.A., priority 1998, dated 2000)
In brackets after ≈: the same amount, converted by molar mass. Several values for one entry are separate records, joined by “and”; a condition that tells them apart may be missing. Equal values may be shown once. Entries after “also recorded” stand apart in the source; their conditions may differ. Read-outs that look alike come from different tables or passages of the source.

Legend:
P388/CPT5 cell line = conditions: P388/CPT5, acquired resistance to camptothecin, no P-glycoprotein
Experimental: (§5) The resistance factor was calculated by dividing the IC50 value obtained on resistant cells by the IC50 value obtained on sensitive cells.

P388/TXT = conditions: IC50 resistant / IC50 sensitive cells, 4 days of continuous exposure
Experimental: as §5

P388/VCR = conditions: IC50 resistant / IC50 sensitive cells, 4 days of continuous exposure
Experimental: as §5

[1] = test system: advanced colon adenocarcinoma C38; experiment: In vivo antitumor activity against advanced stage colon adenocarcinoma C38; design: species or system B6D2F1 female mice; conditions: for T-C: tumor to reach 1000 mg
Experimental: (§1) In vivo schedule of administration and antitumor efficacy studies were carried out using a preclinical standard formulation of Product of formula Ia in ethanol: polysorbate 80 (50:50, v/v). After dilution, the final concentration was 5 % ethanol, 5 % polysorbate, 90 % glucose-5 % in water.
(§2) Product of formula Ia was administered by the intravenous route (i.v.). The experiments and data analyses were done according to standard protocols.
(§3) In cases of high antitumor activity, the two following end points were also used: • tumor growth delay, T-C, where T and C are the median times in days required for the treatment group and the control group tumors to reach a predetermined size (750 to 1500 mg). • log cell kill, which is the logarithm of the total number of cells killed by treatment.
For advanced stage tumors, regressions can be either partial (more than 50 % reduction in tumor mass) or complete. Complete regressions are included in the partial regressions.
(§4) Toxicity was based on drug deaths (≥ 10 %) or a weight loss nadir > 20 %. Docetaxel was used for comparison trials when needed.
Product of formula Ia was administered i.v. to mice bearing 200 to 400 mg of tumor. […] In comparison, docetaxel at the HNTD produced only 40 % partial regressions in the same trial.

colon adenocarcinoma C51 = experiment: In vivo antitumor activity against colon adenocarcinoma C51; design: species or system BALB/c female mice; conditions: for T-C: tumor to reach 750 mg
Experimental: as §1, §2
The activity end points used to assess subcutaneously implanted solid tumors were: • tumor growth inhibition, T/C, where T and C are the median tumor weights in mg of the treated and the control groups, respectively. […] A T/C < 10 %, ++, is considered as a high antitumor activity level which justifies further development (DN-2 level).
as §3, §4
Product of formula Ia was administered i.v. on day 4, 6, 8. […] The dosage below yielded a 2.2 log cell kill.

P388/DOX = conditions: IC50 on resistant cells divided by IC50 on sensitive cells, 4 days of continuous exposure
Experimental: as §5

Calc18/TXT = conditions: IC50 resistant / IC50 sensitive cells, 4 days of continuous exposure
Experimental: as §5

KB V1 = conditions: IC50 resistant / IC50 sensitive cells, 4 days of continuous exposure
Experimental: as §5

HL60/TAX = conditions: IC50 resistant / IC50 sensitive cells, 4 days of continuous exposure
Experimental: as §5

[2] = test system: human colon adenocarcinoma CaCo-2 cell line (ATCC HTB37); experiment: In vitro growth inhibition on CaCo-2 cell line (neutral red); assay type: cell-based
Experimental: The methodology was used, i.e., 96 well plates, time of contact of the drugs (96 hours) and neutral red coloration of viable cell. Results expressed as IC50, were summarized in the next table.

[3] = 7.7 mg/kg per injection i.v., days 14,17,20
[4] = 12.4 mg/kg per injection i.v., days 14,17,20
[5] = 20.0 mg/kg per injection i.v., days 14,17,20
[6] = 32.2 mg/kg per injection i.v., days 14,17,20
[7] = 5.8 mg/kg per injection i.v., days 4,6,8
[8] = 9.3 mg/kg per injection i.v., days 4,6,8
[9] = 15.0 mg/kg per injection i.v., days 4,6,8
[10] = 24.2 mg/kg per injection i.v., days 4,6,8

CC[C@@]1(O)C(=O)OCc2c1cc1n(c2=O)Cc2cc3ccccc3nc2-1 [camptothecin]
Resistance factor (P388/CPT5 cell line): 286

4α-acetoxy-2α-benzoyloxy-5β,20-epoxy-1β-hydroxy-7β,10β-dimethoxy-9-oxo-11-taxen-13α-yl (2R,3S)-3 tert-butoxycarbonylamino-2-hydroxy-3-phenylpropionate [Product of formula Ia]
Resistance factor (P388/CPT5 cell line): 4.8 | Resistance factor (P388/TXT): 1.8 | Resistance factor (P388/VCR): 1.8 | Comments [1, 3]: Active | Complete regressions [1, 3]: 2/5 | log cell kill total [1, 3]: 2.7 | T-C [1, 3]: 25.0 days | Comments [1, 4]: Highly active | Complete regressions [1, 4]: the same number of complete regressions and 5/5 | TFS = tumor free survivors observed on day 139 [1, 4]: 4/5 | tumor free survivors ([1]; 12.4 mg/kg/injection i.v.): 80% | Comments [1, 5]: HNTD highly active | Complete regressions [1, 5]: 5/5 | TFS = tumor free survivors observed on day 139 [1, 5]: all mice being tumor free survivors and 5/5 | Comments [1, 6]: Toxic | DD = drug death [1, 6]: 1/5 | HNTD = highest nontoxic dose ([1]; i.v., mice bearing 200 to 400 mg of tumor): 20 mg/kg/injection | Comments (colon adenocarcinoma C51; [7]): Active | T/C in % day 18 (colon adenocarcinoma C51; [7]): 0% | log cell kill total (colon adenocarcinoma C51; [7]): 2.2 | T-C (colon adenocarcinoma C51; [7]): 21.9 days | Comments (colon adenocarcinoma C51; [8]): highly active; also recorded: HNTD active | T/C in % day 18 (colon adenocarcinoma C51; [8]): 0% | log cell kill total (colon adenocarcinoma C51; [8]): 2.6 | T-C (colon adenocarcinoma C51; [8]): 25.8 days | Comments (colon adenocarcinoma C51; [9]): Toxic | DD = drug death (colon adenocarcinoma C51; [9]): 1/5 | Comments (colon adenocarcinoma C51; [10]): Toxic | DD = drug death (colon adenocarcinoma C51; [10]): 5/5 | HNTD = highest nontoxic dose (colon adenocarcinoma C51; i.v. on day 4, 6, 8, C51-bearing mice): 9.3 mg/kg/injection | Resistance factor (P388/DOX): 10.0 | Resistance factor (P388/DOX; listed as product of formula Ia): 10 | Resistance factor (Calc18/TXT): 4.3 | Resistance factor (KB V1): 7.6 | Resistance factor (HL60/TAX): 2.5

CC(=O)O[C@@]12CO[C@@H]1C[C@H](O)[C@@]1(C)C(=O)[C@H](O)C3=C(C)[C@@H](OC(=O)[C@H](O)[C@@H](NC(=O)OC(C)(C)C)c4ccccc4)C[C@@](O)([C@@H](OC(=O)c4ccccc4)[C@H]21)C3(C)C [Docetaxel]
Resistance factor (P388/CPT5 cell line): 10.5 | IC50 ([2]; Homo sapiens, 96 well plates, 96 hours contact, neutral red): 0.108 ± 0.017 µg/mL (≈ 0.134 µM) | IC50 on CaCo-2 cells relative to Product of formula Ia ([2]; IC50 docetaxel versus IC50 Product of formula Ia): 4.9 times | Resistance factor (P388/TXT): 4.8 | Resistance factor (P388/VCR): 5.8 | Comments [1, 3]: Inactive | Complete regressions [1, 3]: 0/5 | log cell kill total [1, 3]: 0.3 | T-C [1, 3]: 2.5 days | Comments [1, 4]: Marginal activity | Complete regressions [1, 4]: 0/5 | log cell kill total [1, 4]: 0.7 | T-C [1, 4]: 6.1 days | Comments [1, 5]: HNTD highly active | Complete regressions [1, 5]: 0/5 | log cell kill total [1, 5]: 3.1 | T-C [1, 5]: 29.1 days | Comments [1, 6]: Toxic | bwl = body weight loss [1, 6]: 20.6% | partial regressions ([1]; at the HNTD, partial = more than 50 % reduction in tumor mass): 40% | Comments (colon adenocarcinoma C51; [7]): Active | T/C in % day 18 (colon adenocarcinoma C51; [7]): 4% | log cell kill total (colon adenocarcinoma C51; [7]): 0.9 | T-C (colon adenocarcinoma C51; [7]): 8.9 days | Comments (colon adenocarcinoma C51; [8]): Active | T/C in % day 18 (colon adenocarcinoma C51; [8]): 0% | log cell kill total (colon adenocarcinoma C51; [8]): 2.2 | T-C (colon adenocarcinoma C51; [8]): 22.4 days | Comments (colon adenocarcinoma C51; [9]): HNTD highly active | T/C in % day 18 (colon adenocarcinoma C51; [9]): 0% | log cell kill total (colon adenocarcinoma C51; [9]): 3.1 | T-C (colon adenocarcinoma C51; [9]): 31.1 days | Comments (colon adenocarcinoma C51; [10]): Toxic | bwl = body weight loss (colon adenocarcinoma C51; [10]): 22.8% | Resistance factor (P388/DOX): 50.7 | Resistance factor (P388/DOX; listed as docetaxel): 50 | Resistance factor (Calc18/TXT): 23.5 | Resistance factor (KB V1): 59.0 | Resistance factor (KB V1; listed as docetaxel): 59 | Resistance factor (HL60/TAX): 8.1
